Results on one compound are retold here after patent US20210340130A1, “Compositions and methods for treating attention deficit disorders” (priority 2016, published 2021).

Structures are written as SMILES.

For data set [1], the system named is Swiss Webster mice. Briefly: PTZ Proconvulsant test. Type of data set: in vivo. The following applies: doses of 30 mg/kg or less, p.o. Here is the method: Follow on studies of CX717 and 1739 are continuing, employing additional well-known models for ADHD drug efficacy, coupled with a variety of ongoing safety studies. Preliminary safety studies already completed have included a range of toxicity studies focusing on critical convulsant risks widely observed for previously-studied ampakines. Using the well known PTZ Proconvulsant test, non-GLP safety studies were conducted to examine proconvulsant activity of CX717. Swiss Webster mice (n=12/group) were dosed with CX717 (3, 10 or 30 mg/kg p.o.), vehicle (0.5% methocel p.o.) or a positive control, CGS8216 (10 mg/kg in 70% PEG300: 30% water i.p.). Thirty minutes later, the GABA-A antagonist, pentylenetetrazol (PTZ) was infused in the tail vein until tonic seizures were observed. The time at which the first clonic and tonic seizure was observed was noted and used to determine the dose of PTZ necessary to induce both clonic and tonic seizure.

For data set [2], the system named is Male Sprague-Dawley rats. Briefly: Spontaneous locomotor activity (LMA) and rearing in rats. Type of data set: in vivo. Here is the method: Behavioral tests of locomotor activity were conducted to determine the effects of exemplary low impact ampakines CX717 and CX1739 on normal, and amphetamine-stimulated activity in animal behavioral models. […] Male Sprague-Dawley rats (175-200 g; Charles River Laboratories) were given ad libitum food and water and maintained on a 12:12 hr light: dark cycle with lights on at 6:00 a.m. Each of ten test cages (standard polycarbonate animal cage; 26 cm×48 cm×20 cm; W×L×H) were surrounded by two photo beam arrays, placed to detect locomotor activity with a lower array and rearing behavior with an upper array. Locomotor and rearing activity were continuously monitored and recorded by computer for all ten test cages (Photo beam Activity System, San Diego Instruments, San Diego, Calif.). The test period was chosen as the 1st few hours of the dark period of the light: dark cycle. Approximately 15 min before the start of the dark cycle, the rats were removed from the housing facility, transported to the testing room and injected with CX717, CX1739 or vehicle and placed into photo beam activity cages. Immediately after all rats were injected the room lights were turned off and spontaneous activity data were collected for the next four hours. CX717 and CX1739 groups (0.1 to 10 mg/kg) were compared to the vehicle group.

Turning to `O=C(c1ccc2nonc2c1)N1CCOCC1` [CX717, 1-(benzofurazan-5-ylcarbonyl)morpholine], the “proconvulsant activity: dose of PTZ required to elicit a seizure” value in data set [1] is listed as “did not decrease the dose of PTZ required to elicit a seizure”. Moreover, the spontaneous rearing result in data set [2] (10 mg/kg vs. vehicle, p<0.01) is “significant decrease”. For the same compound, the “pharmacodynamics of the effect on rearing behavior” value in data set [2] (10 mpk, 1, 2, 3 and 4 hours post treatment) is “prolonged action”. In data set [2] (first hour following ip administration, ANOVA=0.45), the spontaneous locomotor activity entry is “no effect”.
